{
  "source": "ChEMBL document CHEMBL5214933",
  "about": "“Discovery of Selenium-Containing STING Agonists as Orally Available Antitumor Agents” (J Med Chem, 2022)",
  "key": {"[1]": {"assay": "Clearance in Sprague-Dawley rat at 5 mg/kg, iv measured for 1440 mins by LC-MS/MS analysis", "assay_type": "ADME, organism-based", "settings": "in vivo"}, "[2]": {"target": "T1, Stimulator of interferon genes protein (Homo sapiens, UniProt Q86WV6)", "assay": "Agonist activity at STING in human THP-1 cells harboring IRF-inducible luciferase reporter construct assessed as increase in IRF3 phosphorylation at 50 uM measured after 3 hrs by Western blot analysis", "assay_type": "cell-based", "settings": "filed as agonist"}, "[3]": {"target": "T1, Stimulator of interferon genes protein", "assay": "Agonist activity at STING in human THP-1 cells harboring IRF-inducible luciferase reporter construct assessed as increase in IRF3 phosphorylation measured after 3 hrs by Western blot analysis", "assay_type": "cell-based", "settings": "filed as agonist, dose 10-50 µM, DDE = dose-dependent effect"}, "[4]": {"assay": "Stability in human plasma assessed as parent compound remaining at 1 uM incubated for 24 hrs in presence of NADPH by LC-MS/MS analysis", "assay_type": "ADME, cell-free", "settings": "read-out: Stability"}, "[5]": {"target": "T1, Stimulator of interferon genes protein", "assay": "Agonist activity at STING in human THP-1 cells harboring IRF-inducible luciferase reporter construct assessed as increase in TBK1 phosphorylation at 50 uM measured after 1 hrs by Western blot analysis", "assay_type": "cell-based", "settings": "filed as agonist"}, "Mus musculus [6]": {"system": "Mus musculus", "assay": "Immunostimulatory activity in naive […] mouse implanted with mouse MC38 cells assessed as increase in T cells in spleen at 30 mg/kg, po by FACS analysis", "assay_type": "functional, organism-based", "settings": "MC-38"}, "CT26": {"system": "CT26", "assay": "Immunological memory derived antitumor activity against mouse CT26 cells implanted in naive BALB/c mouse assessed as suppression of tumor growth at 20 mg/kg, po administered once every 5 days for 23 days starting from day 8 followed by reinoculation of cells into mouse on day 61 and measured for 50 days", "assay_type": "functional", "settings": "time 50 day"}, "[7]": {"target": "T1, Stimulator of interferon genes protein", "assay": "Agonist activity at STING in human THP-1 cells assessed as increase in CXCL10 mRNA expression at 10 uM measured after 3 hrs by qRT-PCR analysis", "assay_type": "cell-based", "settings": "filed as agonist"}, "[8]": {"target": "T2, Stimulator of interferon genes protein (Mus musculus, UniProt Q3TBT3)", "T2 sequence (Q3TBT3 whole entry)": "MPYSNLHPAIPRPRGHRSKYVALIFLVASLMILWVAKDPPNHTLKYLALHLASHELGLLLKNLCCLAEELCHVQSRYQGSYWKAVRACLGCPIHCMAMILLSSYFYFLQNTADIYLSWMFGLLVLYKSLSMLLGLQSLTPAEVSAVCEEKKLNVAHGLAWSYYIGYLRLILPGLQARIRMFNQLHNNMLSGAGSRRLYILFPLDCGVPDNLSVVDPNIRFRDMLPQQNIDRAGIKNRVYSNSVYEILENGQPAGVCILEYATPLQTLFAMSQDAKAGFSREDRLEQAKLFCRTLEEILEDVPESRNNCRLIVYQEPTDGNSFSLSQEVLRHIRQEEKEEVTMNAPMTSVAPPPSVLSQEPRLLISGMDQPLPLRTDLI", "assay": "Agonist activity at STING in mouse RAW264.7 cells harboring IRF-inducible luciferase reporter construct assessed as increase in relative fluorescence unit incubated for 12 hrs by Quanti-luc reagent based assay", "assay_type": "cell-based"}, "[9]": {"assay": "Half life in Sprague-Dawley rat at 50 mg/kg, po measured for 1440 mins by LC-MS/MS analysis", "assay_type": "ADME, organism-based", "settings": "in vivo"}, "[10]": {"target": "T1, Stimulator of interferon genes protein", "assay": "Agonist activity at STING in human THP-1 cells assessed as increase in IL6 mRNA expression at 10 uM measured after 3 hrs by qRT-PCR analysis", "assay_type": "cell-based", "settings": "filed as agonist"}, "Mus musculus [11]": {"system": "Mus musculus", "assay": "Immunostimulatory activity in naive […] mouse implanted with mouse MC38 cells assessed as increase in CD69-positive NK cells in spleen at 30 mg/kg, po by FACS analysis (reference value: 4.7%)", "assay_type": "functional, MC-38"}, "[12]": {"assay": "Toxicity in naive BALB/c mouse implanted with mouse 4T1-Luc cells assessed as reduction in body weight at 20 mg/kg, po measured after 15 days", "assay_type": "organism-based", "settings": "in vivo, 360 h, time 15 day"}, "[13]": {"assay": "Stability in rat plasma assessed as interconversion into (S)-4-(5,6-Dimethoxybenzo[b]selenophen-2-yl)-2-ethyl-4-oxobutanoic acid incubated for 24 hrs by normal-phase HPLC analysis", "assay_type": "ADME, cell-free"}, "[14]": {"assay": "Oral bioavailability in Sprague-Dawley rat at 50 mg/kg measured for 1440 mins by LC-MS/MS analysis", "assay_type": "ADME, organism-based", "settings": "in vivo"}, "[15]": {"target": "T1, Stimulator of interferon genes protein", "assay": "Agonist activity at STING in human THP-1 cells harboring IRF-inducible luciferase reporter construct assessed as fold change in ISG signalling at 20 uM incubated for 12 hrs by Quanti-luc reagent based assay relative to control", "assay_type": "cell-based", "settings": "filed as agonist"}, "4T1": {"system": "4T1", "assay": "Antitumor activity against mouse 4T1 cells implanted in naive BALB/c mouse assessed as tumor growth inhibition at 20 mg/kg, po administered once every 5 days and measured every 3 days by digital caliper analysis", "assay_type": "functional, organism-based", "settings": "time 5.0 day"}, "[16]": {"target": "T3, Stimulator of interferon genes protein (Mus musculus) (UniProt Q3TBT3)", "T3 sequence (whole entry)": "T2 sequence (Q3TBT3 whole entry)", "assay": "Agonist activity at STING in mouse MEF cells assessed as increase in CXCL10 mRNA expression at 10 uM measured after 3 hrs by qRT-PCR analysis", "assay_type": "cell-based", "settings": "filed as agonist"}, "MC-38": {"system": "MC-38", "assay": "In vivo activation of STING in naive […] mouse implanted with mouse MC38 cells assessed as increase in IFN-gamma level in plasma at 30 mg/kg, po administered as single dose and measured after 4 hrs by ELISA", "assay_type": "functional, organism-based"}, "[17]": {"assay": "Volume of distribution at steady state in Sprague-Dawley rat at 5 mg/kg, iv measured for 1440 mins by LC-MS/MS analysis", "assay_type": "ADME, organism-based", "settings": "in vivo, read-out: Vdss"}, "[18]": {"assay": "Solubility of compound in PBS buffer at pH 7.4 at 3 mg incubated for 24 hrs under shaking condition by RP-HPLC analysis", "assay_type": "physicochemical"}, "[19]": {"target": "T1, Stimulator of interferon genes protein", "assay": "Binding affinity to recombinant human STING H232 variant expressed in Escherichia coli BL21 (DE3) assessed as dissociation constant by single cycle SPR analysis"}, "[20]": {"system": "Stimulator of interferon genes protein (Homo sapiens), Q86WV6 [UNDEFINED MUTATION]", "sequence (Q86WV6 whole entry, looked up, stated change not applied)": "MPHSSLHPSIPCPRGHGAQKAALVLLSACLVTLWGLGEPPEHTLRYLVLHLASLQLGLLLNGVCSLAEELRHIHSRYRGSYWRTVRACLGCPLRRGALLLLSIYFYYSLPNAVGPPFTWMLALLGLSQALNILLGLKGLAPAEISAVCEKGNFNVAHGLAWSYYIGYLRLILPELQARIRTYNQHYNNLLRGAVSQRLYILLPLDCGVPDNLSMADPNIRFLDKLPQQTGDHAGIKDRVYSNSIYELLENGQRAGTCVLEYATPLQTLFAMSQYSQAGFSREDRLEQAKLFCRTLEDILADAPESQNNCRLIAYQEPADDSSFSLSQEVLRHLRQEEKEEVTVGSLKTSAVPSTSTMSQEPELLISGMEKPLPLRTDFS", "assay": "Binding affinity to recombinant human STING R232 variant expressed in Escherichia coli BL21 (DE3) assessed as thermal stabilization by measuring change in melting temperature at 0.1 mM incubated for 30 mins by SYPRO orange dye based differential scanning fluorimetry assay"}, "[21]": {"assay": "Stability in dog plasma assessed as interconversion into (S)-4-(5,6-Dimethoxybenzo[b]selenophen-2-yl)-2-ethyl-4-oxobutanoic acid incubated for 24 hrs by normal-phase HPLC analysis", "assay_type": "ADME, cell-free, Canis lupus familiaris"}, "Mus musculus [22]": {"system": "Mus musculus", "assay": "Immunostimulatory activity in naive […] mouse implanted with mouse MC38 cells assessed as increase in NKT cells in spleen at 30 mg/kg, po by FACS analysis", "assay_type": "functional, organism-based", "settings": "MC-38"}, "[23]": {"assay": "Clearance in Sprague-Dawley rat at 50 mg/kg, po measured for 1440 mins by LC-MS/MS analysis", "assay_type": "ADME, organism-based", "settings": "in vivo"}, "[24]": {"target": "T1, Stimulator of interferon genes protein", "assay": "Agonist activity at STING in human THP-1 cells harboring IRF-inducible luciferase reporter construct assessed as increase in TBK1 phosphorylation measured after 3 hrs by Western blot analysis", "assay_type": "cell-based", "settings": "filed as agonist, dose 10-50 µM, DDE = dose-dependent effect"}, "[25]": {"system": "Stimulator of interferon genes protein (Homo sapiens), Q86WV6 [UNDEFINED MUTATION]", "assay": "Binding affinity to recombinant human STING H232 variant expressed in Escherichia coli BL21 (DE3) assessed as thermal stabilization by measuring change in melting temperature at 2 mM incubated for 30 mins by SYPRO orange dye based differential scanning fluorimetry assay"}, "[26]": {"assay": "Stability in rat liver microsomes assessed as parent compound remaining at 1 uM incubated for 2 hrs in presence of NADPH by LC-MS/MS analysis", "assay_type": "ADME, Microsome", "settings": "read-out: Stability"}},
  "note": "Calls of active or inactive are those of the source. The calls are words filed in the database; no cut-off is given here.",
  "data": [
    {"smiles": "CC[C@H](CC(=O)c1cc2cc(OC)c(OC)cc2[se]1)C(=O)O", "values": [
      {"measurement": "clearance", "setting": "[1]", "value": 2.83, "unit": "mL/min/kg"},
      {"measurement": "Activity", "setting": "[2]", "value": "Active"},
      {"measurement": "Activity", "setting": "[3]", "value": "Dde"},
      {"measurement": "remaining at 24 h, 1 µM", "setting": "[4]", "value": 98, "unit": "%"},
      {"measurement": "Activity", "setting": "[5]", "value": "Active"},
      {"measurement": "Activity", "setting": "Mus musculus [6]", "value": "Active"},
      {"measurement": "Activity", "setting": "CT26", "value": 100, "unit": "%"},
      {"measurement": "Activity", "setting": "[7]", "value": "Active"},
      {"measurement": "EC50", "setting": "[8]", "value": 5.71, "unit": "µM"},
      {"measurement": "half-life", "setting": "[9]", "value": 1.6, "unit": "h"},
      {"measurement": "Activity", "setting": "[10]", "value": "Active"},
      {"measurement": "Activity", "setting": "Mus musculus [11]", "value": 46.8, "unit": "%"},
      {"measurement": "Activity", "setting": "[12]", "value": "Non-Toxic"},
      {"measurement": "Stability", "setting": "[13]", "value": "Stable"},
      {"measurement": "bioavailability", "setting": "[14]", "value": 107, "unit": "%"},
      {"measurement": "fold change (FC)", "setting": "[15]", "value": 37},
      {"measurement": "Activity", "setting": "4T1", "value": "Active"},
      {"measurement": "Activity", "setting": "[16]", "value": "Active"},
      {"measurement": "Activity", "setting": "MC-38", "value": "Active"},
      {"measurement": "Vd", "setting": "[17]", "value": 0.26, "unit": "L/kg"},
      {"measurement": "solubility thermodynamic at 24 h", "setting": "[18]", "value": 1200, "unit": "µg/mL"},
      {"measurement": "Kd", "setting": "[19]", "value": 23, "unit": "µM"},
      {"measurement": "ΔTm", "setting": "[20]", "value": 18.1, "unit": "°C"},
      {"measurement": "Stability", "setting": "[21]", "value": "Stable"},
      {"measurement": "Activity", "setting": "Mus musculus [22]", "value": "Active"},
      {"measurement": "CL/F", "setting": "[23]", "value": 2.67, "unit": "mL/min/kg"},
      {"measurement": "Activity", "setting": "[24]", "value": "Dde"},
      {"measurement": "ΔTm", "setting": "[25]", "value": 7.4, "unit": "°C"},
      {"measurement": "remaining at 2 h, 1 µM", "setting": "[26]", "value": 100, "unit": "%"}
    ]}
  ]
}
